Earlier results in EP4603080A1 (Adocia, priority 2024, dated 2025).

Conditions: read-out: EC50value; potency, WO2022129526 Assay 2, Tables 4b and 4c

For “N-alpha-[(S)-4-Carboxy-4-(19-carboxynonadecanoylamino)butyryl]-[Glu14,Arg17,Pro37]-pramlintide [cagrilintide]”, the EC50 is listed as roughly 0.011 nM.
